Reference: the NIST ThermoML archive (doi:10.1016/j.jct.2005.08.013)
Several values for one entry are separate records, joined by “and”; a condition that tells them apart may be missing. Identical values can stand only once.

Details: Calculated from knudsen effusion weight loss

c1ccc(-c2cc(-c3ccccc3)cc(-c3ccccc3)c2)cc1 [1,3,5-triphenylbenzene]
Crystal
Details | vapor or sublimation pressure
407.36 K | 0.00014 kPa and 0.000141 kPa and 0.000139 kPa
409.3 K | 0.000173 kPa and 0.000166 kPa and 0.000164 kPa
411.3 K | 0.000215 kPa and 0.00021 kPa and 0.000206 kPa
413.23 K | 0.000251 kPa and 0.000256 kPa
415.35 K | 0.000317 kPa and 0.000316 kPa
416.86 K | 0.000361 kPa and 0.000348 kPa
417.22 K | 0.00037 kPa and 0.000371 kPa
419.24 K | 0.000454 kPa and 0.00047 kPa
421.36 K | 0.000542 kPa and 0.000563 kPa and 0.000568 kPa
423.29 K | 0.000672 kPa and 0.000668 kPa and 0.000649 kPa
425.26 K | 0.000796 kPa and 0.000784 kPa
427.36 K | 0.000966 kPa and 0.000984 kPa and 0.001 kPa
429.29 K | 0.00117 kPa and 0.0012 kPa

O=C1c2ccccc2-c2cccc3cccc1c23 [7H-benz[de]anthracen-7-one]
Crystal
Details | vapor or sublimation pressure
390.31 K | 0.000152 kPa and 0.000149 kPa
392.23 K | 0.000179 kPa and 0.000177 kPa
394.57 K | 0.000234 kPa and 0.000221 kPa
396.35 K | 0.000263 kPa and 0.000262 kPa and 0.00026 kPa
398.22 K | 0.000323 kPa and 0.000325 kPa
400.41 K | 0.000394 kPa and 0.000381 kPa
402.19 K | 0.000471 kPa and 0.000453 kPa
404.34 K | 0.00057 kPa and 0.000564 kPa and 0.000565 kPa
406.35 K | 0.000686 kPa and 0.000679 kPa and 0.00068 kPa
408.35 K | 0.00081 kPa and 0.000796 kPa and 0.0008 kPa
410.23 K | 0.000962 kPa and 0.000954 kPa and 0.000926 kPa

c1ccc2cc3ccccc3cc2c1 [anthracene]
Crystal
Details | vapor or sublimation pressure
340.41 K | 0.000143 kPa and 0.000144 kPa and 0.000141 kPa
342.25 K | 0.000172 kPa and 0.000173 kPa and 0.000167 kPa
344.06 K | 0.000211 kPa and 0.000206 kPa
346.4 K | 0.000258 kPa and 0.000262 kPa and 0.000263 kPa
348.15 K | 0.000306 kPa and 0.000304 kPa and 0.000308 kPa
350.15 K | 0.000375 kPa and 0.000371 kPa and 0.000376 kPa
352.39 K | 0.000464 kPa and 0.000459 kPa and 0.000458 kPa
354.06 K | 0.00055 kPa and 0.000548 kPa and 0.000554 kPa
356.2 K | 0.000673 kPa and 0.000679 kPa and 0.000658 kPa
358.22 K | 0.000815 kPa and 0.000821 kPa and 0.00081 kPa
360.38 K | 0.00101 kPa and 0.00098 kPa

O=C(O)c1ccccc1 [benzoic acid]
Crystal
Details | vapor or sublimation pressure
299.33 K | 0.000134 kPa and 0.000131 kPa
301.04 K | 0.000162 kPa and 0.00016 kPa and 0.000155 kPa
303.16 K | 0.000203 kPa and 0.000201 kPa and 0.00021 kPa
305.24 K | 0.000271 kPa and 0.000265 kPa and 0.000261 kPa
307.13 K | 0.000332 kPa and 0.000326 kPa and 0.000323 kPa
309.25 K | 0.000414 kPa and 0.000408 kPa and 0.00042 kPa
311.3 K | 0.000525 kPa and 0.000512 kPa and 0.000524 kPa
313.2 K | 0.000643 kPa and 0.000622 kPa and 0.000647 kPa
315.27 K | 0.000815 kPa and 0.000799 kPa and 0.00083 kPa
317.32 K | 0.00105 kPa and 0.00102 kPa and 0.00101 kPa

c1ccc2c(c1)ccc1ccccc12 [phenanthrene]
Crystal 2
Details | vapor or sublimation pressure
313.46 K | 0.000123 kPa and 0.000124 kPa
315.48 K | 0.000151 kPa and 0.000155 kPa and 0.000156 kPa
317.41 K | 0.000185 kPa and 0.000191 kPa and 0.000193 kPa
319.47 K | 0.000238 kPa and 0.000239 kPa and 0.000235 kPa
321.48 K | 0.000292 kPa and 0.000293 kPa and 0.000296 kPa
323.16 K | 0.000343 kPa and 0.000352 kPa
325.46 K | 0.000436 kPa and 0.000446 kPa and 0.000453 kPa
327.47 K | 0.000543 kPa and 0.000544 kPa and 0.00055 kPa
329.47 K | 0.00067 kPa and 0.000675 kPa and 0.000678 kPa
331.42 K | 0.000814 kPa and 0.000825 kPa and 0.000834 kPa
333.16 K | 0.001 kPa and 0.00101 kPa
